Ki data for 17 compounds are collected here from BindingDB's records for doi:10.1046/j.1471-4159.2000.0752590.x (F. Hoffmann-La Roche, 2000).

SMILES strings stand for the structures.

Experiment [1] addresses Metabotropic glutamate receptor 5 (Homo sapiens, UniProt P41594).
In experiment [2] the target is Metabotropic glutamate receptor 1 (Homo sapiens, UniProt Q13255).
Metabotropic glutamate receptor 1, sequence (Q13255 whole entry): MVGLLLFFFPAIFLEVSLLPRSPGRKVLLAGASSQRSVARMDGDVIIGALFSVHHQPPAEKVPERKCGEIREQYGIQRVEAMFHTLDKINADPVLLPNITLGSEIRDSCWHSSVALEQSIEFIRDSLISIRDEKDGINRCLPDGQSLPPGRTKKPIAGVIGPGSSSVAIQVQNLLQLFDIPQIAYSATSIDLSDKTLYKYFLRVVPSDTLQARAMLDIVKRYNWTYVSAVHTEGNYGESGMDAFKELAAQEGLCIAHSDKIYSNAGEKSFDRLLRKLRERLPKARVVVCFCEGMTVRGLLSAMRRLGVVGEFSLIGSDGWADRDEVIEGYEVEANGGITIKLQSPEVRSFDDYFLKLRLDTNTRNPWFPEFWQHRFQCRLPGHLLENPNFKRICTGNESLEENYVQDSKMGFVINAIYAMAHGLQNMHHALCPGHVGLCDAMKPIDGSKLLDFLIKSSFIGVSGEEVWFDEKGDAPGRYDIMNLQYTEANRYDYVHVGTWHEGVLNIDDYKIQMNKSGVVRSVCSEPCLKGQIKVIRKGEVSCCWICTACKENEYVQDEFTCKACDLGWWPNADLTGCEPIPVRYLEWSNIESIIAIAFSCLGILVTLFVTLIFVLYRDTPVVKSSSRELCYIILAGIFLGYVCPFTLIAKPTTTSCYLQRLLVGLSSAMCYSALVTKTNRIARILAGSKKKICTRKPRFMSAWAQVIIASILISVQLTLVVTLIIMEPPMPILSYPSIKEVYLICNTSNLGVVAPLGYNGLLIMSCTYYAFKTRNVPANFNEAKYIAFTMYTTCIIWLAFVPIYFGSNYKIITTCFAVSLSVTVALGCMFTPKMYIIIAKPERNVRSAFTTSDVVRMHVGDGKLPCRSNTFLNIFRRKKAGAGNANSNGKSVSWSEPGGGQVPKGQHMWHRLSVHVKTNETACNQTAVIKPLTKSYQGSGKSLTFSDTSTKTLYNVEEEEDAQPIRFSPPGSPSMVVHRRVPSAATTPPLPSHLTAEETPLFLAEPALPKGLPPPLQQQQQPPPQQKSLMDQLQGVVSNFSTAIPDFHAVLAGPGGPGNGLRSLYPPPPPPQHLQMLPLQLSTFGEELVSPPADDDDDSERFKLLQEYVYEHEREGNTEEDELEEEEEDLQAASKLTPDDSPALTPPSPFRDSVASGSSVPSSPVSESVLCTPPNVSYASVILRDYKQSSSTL

Metabotropic glutamate receptor 5, sequence (P41594 whole entry): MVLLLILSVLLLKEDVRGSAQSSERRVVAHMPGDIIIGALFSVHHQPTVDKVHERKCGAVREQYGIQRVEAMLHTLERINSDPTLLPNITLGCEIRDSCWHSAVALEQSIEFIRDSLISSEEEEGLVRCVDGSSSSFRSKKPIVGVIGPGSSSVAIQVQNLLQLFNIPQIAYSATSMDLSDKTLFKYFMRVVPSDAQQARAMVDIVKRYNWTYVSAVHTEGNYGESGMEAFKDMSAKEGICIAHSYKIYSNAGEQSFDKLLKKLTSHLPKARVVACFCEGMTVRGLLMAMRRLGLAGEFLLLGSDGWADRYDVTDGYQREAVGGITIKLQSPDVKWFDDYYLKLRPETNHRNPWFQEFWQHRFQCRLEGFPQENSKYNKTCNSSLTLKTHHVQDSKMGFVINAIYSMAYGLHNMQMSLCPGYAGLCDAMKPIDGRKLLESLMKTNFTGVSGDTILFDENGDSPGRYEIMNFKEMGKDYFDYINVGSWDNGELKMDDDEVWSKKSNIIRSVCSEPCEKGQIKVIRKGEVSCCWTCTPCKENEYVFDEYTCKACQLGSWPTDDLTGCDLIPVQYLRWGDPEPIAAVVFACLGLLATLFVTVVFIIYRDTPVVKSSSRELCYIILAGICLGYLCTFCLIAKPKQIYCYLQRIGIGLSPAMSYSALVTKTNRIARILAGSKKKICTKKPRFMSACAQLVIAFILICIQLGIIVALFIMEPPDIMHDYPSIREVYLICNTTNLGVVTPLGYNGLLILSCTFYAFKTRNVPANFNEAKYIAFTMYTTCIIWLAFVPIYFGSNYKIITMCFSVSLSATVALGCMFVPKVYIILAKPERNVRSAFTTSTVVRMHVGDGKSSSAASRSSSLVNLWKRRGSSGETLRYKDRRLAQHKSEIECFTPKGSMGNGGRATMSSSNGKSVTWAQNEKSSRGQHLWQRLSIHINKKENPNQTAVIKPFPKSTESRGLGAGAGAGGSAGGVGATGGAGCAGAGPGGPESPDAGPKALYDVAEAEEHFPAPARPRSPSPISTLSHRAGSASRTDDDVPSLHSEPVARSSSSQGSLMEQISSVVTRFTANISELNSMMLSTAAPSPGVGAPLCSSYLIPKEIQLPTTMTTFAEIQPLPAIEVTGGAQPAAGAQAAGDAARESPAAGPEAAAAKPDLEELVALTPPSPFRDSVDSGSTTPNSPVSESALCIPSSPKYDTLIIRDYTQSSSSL

For `N[C@@H](CCP(=O)(O)O)C(=O)O`, the Ki in experiment [1] and in experiment [2] was > 10 µM each time.

Regarding `NC(C(=O)O)c1ccc(C(=O)O)c(O)c1` (stereo unspecified), in experiment [1], the Ki turned out to be 2.5 µM.

Take `C[C@@](N)(C(=O)O)c1ccc(C(=O)O)cc1` (racemic): the Ki in experiment [1] and in experiment [2] was > 10 µM in each case.

Turning to `NC1(C(=O)O)CCc2cc(C(=O)O)ccc21` (racemic) [AIDA], the Ki in experiment [1] and in experiment [2] was > 10 µM in each case.

In turn, `N[C@@]1(C(=O)O)CC[C@H](C(=O)O)C1` [1S, 3R-ACPD] registered a Ki in experiment [1] of 2.1 µM.

For the compound `N[C@@H](Cn1oc(=O)[nH]c1=O)C(=O)O` [2-amino-3-(3,5-dioxo[1,2,4]oxadiazolidin-2-yl)propionic acid], the affinity in experiment [1] corresponds to a Ki of 0.029 µM.

With `Cc1cc(C(N)C(=O)O)ccc1C(=O)O` (stereo unspecified) [2Me4CPG], the Ki in experiment [1] is > 10 µM; in experiment [2], 0.7 µM.

As for `Cc1onc(O)c1CC(N)C(=O)O` (stereo not drawn) [(RS)-2-amino-3-(3-hydroxy-5-methylisoxazol-4-yl)-propionicacid], the Ki in experiment [1] and in experiment [2] was > 10 µM in each case.

In the case of `N[C@H](C(=O)O)c1cccc(O)c1` [(S)-3-Hydroxyphenylglycine], the Ki is 8.4 µM in experiment [1] and > 10 µM in experiment [2].

Turning to `N[C@@H](C(=O)O)c1ccc(C(=O)O)cc1` [(S)-4CPG], the figures for the Ki in experiment [1] and in experiment [2] were > 10 µM and 3.7 µM, respectively.

As for `NC(C(=O)O)c1cc(=O)[nH]o1` (stereo unspecified) [Amino-(3-hydroxy-isoxazol-5-yl)-acetic acid(Ibotenic acid)], the Ki in experiment [1] is 1.9 µM; in experiment [2], 1.2 µM.

In the case of `N[C@H](CP(=O)(O)O)C(=O)O` [CAS_23052-80-4], the Ki in experiment [1] and in experiment [2] was > 10 µM each time.

Consider `Nc1nc(O)c2ncn(COC(CO)CO)c2n1` [CAS_82410-32-0], for which the figures for the Ki in experiment [1] and in experiment [2] were 3.9 µM and 0.9 µM, respectively.

Take `NC(C(=O)O)c1cc(O)ccc1Cl` (stereo unspecified) [CHPG]: the Ki in experiment [1] and in experiment [2] was > 10 µM each time.

Take `N[C@H](C(=O)O)C1[C@@H](C(=O)O)[C@@H]1C(=O)O` (stereo partly specified) [DCG-IV]: the Ki in experiment [1] and in experiment [2] was > 10 µM throughout.

In the case of `N[C@H](C(=O)O)[C@H]1C[C@H]1C(=O)O` [L-CCG-IV], the Ki in experiment [1] stood at 1.5 µM; in experiment [2] it was 2.3 µM.

Consider `O=c1nc2c3cc(-n4ccnc4)c([N+](=O)[O-])cc3[nH]c(=O)n2[nH]1` [Ro-48-8587], for which the Ki in experiment [1] and in experiment [2] was > 10 µM throughout.

As usually defined, the Ki is a dissociation constant, usually derived from enzyme kinetics or from competition with a known ligand. The low end stands for a stronger hold on the target, the high end for a looser hold on the target.
